Source: patent US20240279218A1 (Hoffmann-La Roche Inc., priority 2016, published 2024)

Assays:
h-GABA-A α5β3γ2 [1] = molecular target: T1, h-GABA-A α5β3γ2 (Homo sapiens (Human), UniProt P18507+P31644); assay: Two-electrode voltage clamp electrophysiology in Xenopus oocytes expressing GABAA receptors, modulation of GABA EC20 current; assay type: cell-based; details: Xenopus oocytes; for Efficacy (GABA) %: % modulation of GABA EC20 = 100*(Fold increase−1); for Fold increase h-GABA-A α5β3γ2 oocyte: GABA EC20, test compound at approx. 30 fold its Ki
Description: Xenopus laevis oocytes at maturation stages V-VI were used for the expression of cloned mRNA encoding GABAA receptor subunits. Oocytes ready for RNA micro-injection were bought from Ecocyte, Castrop-Rauxel, Germany and stored in modified Barth's medium (composition in mM: NaCl 88, KCl 1, NaHCO32.4, HEPES 10, MgSO4 0.82, CaNO3 0.33, CaCl2) 0.33, pH=7.5) at 20° C. until the experiment.
Oocytes were plated in 96-well plates to be used in an automated instrument (Robo-ocyte, MultiChannelSystems, Reutlingen, Germany) for microinjection and electrophysiological recordings. Approximately 50 nl of an aqueous solution containing the RNA transcripts for the subunits of the desired GABAA receptor was injected into each oocyte. RNA concentrations ranged between 0.3 and 16 ng/μl/subunit and were adjusted in pilot experiments to obtain GABA responses of a suitable size and a maximal effect of the reference modulator, Beta-CCM (β-CCM), a betacarboline negative allosteric modulator (NAM) at the GABAA receptor benzodiazepine (BZD) binding site or Midazolam, a benzodiazepine positive allosteric modulator (PAM) at the GABAA receptor benzodiazepine (BZD) binding site. The concentration of the γ2 subunit encoding RNA usually was 5-to 10-fold higher than the RNAs encoding the other subunits. Oocytes were kept in modified Barth's medium (composition in mM: NaCl 88, KCl 1, NaHCO3 4, HEPES 10, MgSO4 0.82, CaNO3 0.33, CaCl2 0.33, pH=7.5) at 20° C. until the experiment.
Electrophysiological experiments were performed on days 3 to 5 after the micro-injection of mRNA. During the experiment the oocytes were constantly superfused by a solution containing (in mM) NaCl 90, KCl 1, HEPES 5, MgCl2 1, CaCl2 1 (pH 7.4). Oocytes were impaled by two glass microelectrodes (resistance: 0.4 MΩ) which were filled with a solution containing KCl 1M+K-acetate 1.5 M and voltage-clamped to −80 mV. The recordings were performed at room temperature using the Roboocyte two-electrode voltage clamp system (Multichannelsystem). After an initial equilibration period of 1.5 min GABA was added for 1.5 min at a concentration evoking approximately 20% of a maximal current response (EC20). After another rest interval of 2.5 min GABA was again added evoking a response of similar amplitude and shape. […] Current traces were recorded at a digitization rate of 10 Hz during and shortly before and after the GABA application.
Each compound and concentration was tested on at least 3 oocytes.
For the analysis, the digitized current traces of the first and second GABA response were superimposed and, if necessary, rescaled to equal maximal amplitudes. The ratio between the two responses during the time interval of test compound application was calculated point by point. The extremum of the resulting “ratio trace” was taken as the efficacy (“Fold increase”) of the compound expressed as “% modulation of GABA EC20” (100*(Fold increase−1)).

h-GABA-A α5β3γ2 [2] = molecular target: T1, h-GABA-A α5β3γ2; assay: [3H]flumazenil competition binding assay, membranes of HEK293 cells expressing human GABAA receptors; details: displacement of [3H]flumazenil 0.5 nM, HEK293 cells expressing human receptors, mean of two determinations; read-out: Ki h-GABA-A α5β3γ2
Description: The affinity of compounds at GABAA receptor subtypes was measured by competition for [3H]flumazenil (85 Ci/mmol; Roche) binding to HEK293 cells expressing rat (stably transfected) or human (transiently transfected) receptors of composition α1β3γ2, α2β3γ2, α3β3γ2 and α5β3γ2.
Cell pellets were suspended in Krebs-tris buffer (4.8 mM KCl, 1.2 mM CaCl2, 1.2 mM MgCl2, 120 mM NaCl, 15 mM Tris; pH 7.5; binding assay buffer), homogenized by polytron for ca. 20 sec on ice and centrifuged for 60 min at 4° C. (50000 g; Sorvall, rotor: SM24=20000 rpm). The cell pellets were resuspended in Krebs-tris buffer and homogenized by polytron for ca. 15 sec on ice. Protein was measured (Bradford method, Bio-Rad) and aliquots of 1 mL were prepared and stored at −80° C.
Assays were incubated to equilibrium for 1 hour at 4° C. and harvested onto GF/C uni-filters (Packard) by filtration using a Packard harvester and washing with ice-cold wash buffer (50 mM Tris; pH 7.5). After drying, filter-retained radioactivity was detected by liquid scintillation counting. Ki values were calculated using Excel-Fit (Microsoft) and are the means of two determinations.

SMILES	Efficacy (GABA) % (h-GABA-A α5β3γ2 [1]) [%]	Fold increase h-GABA-A α5β3γ2 oocyte (h-GABA-A α5β3γ2 [1])	Ki (h-GABA-A α5β3γ2 [2]) [µM]
Cc1ccc(-c2noc(C)c2COc2cc3c(cn2)C(=O)N(C2CCOCC2)C3)cn1 [Example 22, 6-((5-methyl-3-(6-methylpyridin-3-yl)isoxazol-4-yl)methoxy)-2-(tetrahydro-2H-pyran-4-yl)-1H-pyrrolo[3,4-c]pyridin-3(2H)-one]	44	1.44	0.0108
Cc1ccc(-c2noc(C)c2COc2ccc(C(=O)N[C@H]3CCCC[C@@H]3O)nn2)cn1 [Example 24, N-((1S,2S)-2-hydroxycyclohexyl)-6-((5-methyl-3-(6-methylpyridin-3-yl)isoxazol-4-yl)methoxy)pyridazine-3-carboxamide]	63	1.63	0.0416
Cc1ccc(-c2noc(C)c2COc2ccc(C(=O)N[C@@H]3CCCC[C@H]3O)nn2)cn1 [Example 25, N-((1R,2R)-2-hydroxycyclohexyl)-6-((5-methyl-3-(6-methylpyridin-3-yl)isoxazol-4-yl)methoxy)pyridazine-3-carboxamide]	59	1.59	0.0094
Cc1ccc(-c2noc(C)c2COc2ccc(C(=O)NC3CC3)nn2)cn1 [Example 26, N-cyclopropyl-6-((5-methyl-3-(6-methylpyridin-3-yl)isoxazol-4-yl)methoxy)pyridazine-3-carboxamide]	80	1.8	0.0052
Cc1ccc(-c2noc(C)c2COc2ccc(C(=O)N[C@@H]3CCCC[C@@H]3O)nn2)cn1 [Example 27, N-((1R,2S)-2-hydroxycyclohexyl)-6-((5-methyl-3-(6-methylpyridin-3-yl)isoxazol-4-yl)methoxy)pyridazine-3-carboxamide]	54	1.54	0.0123
Cc1ccc(-c2noc(C)c2COc2ccc(C(=O)N[C@@H]3CCOC[C@H]3O)nn2)cn1 [Example 28, N-((3S,4R)-3-hydroxytetrahydropyran-4-yl)-6-((5-methyl-3-(6-methylpyridin-3-yl)isoxazol-4-yl)methoxy)pyridazine-3-carboxamide]	52	1.52	0.008
Cc1ccc(-c2noc(C)c2COc2ccc(C(=O)NCCO)nn2)cn1 [Example 29, N-(2-hydroxyethyl)-6-((5-methyl-3-(6-methylpyridin-3-yl)isoxazol-4-yl)methoxy)pyridazine-3-carboxamide]	81	1.81	0.008
Cc1ccc(-c2noc(C)c2COc2ccc(C(=O)NC3CCS(=O)(=O)CC3)nn2)cn1 [Example 30, N-(1,1-dioxothian-4-yl)-6-((5-methyl-3-(6-methylpyridin-3-yl)-1,2-oxazol-4-yl)methoxy)pyridazine-3-carboxamide]	94	1.94	0.0124
Cc1ccc(-c2noc(C)c2COc2ccc(C(=O)NCC3CC3)nn2)cn1 [Example 31, N-(cyclopropylmethyl)-6-((5-methyl-3-(6-methylpyridin-3-yl)isoxazol-4-yl)methoxy)pyridazine-3-carboxamide]	102	2.02	0.0142
Cc1ccc(-c2noc(C)c2COc2ccc(C(=O)NC(C)(C)CO)nn2)cn1 [Example 32]	79	1.79	0.0085
